Experimental data: PubChem BioAssay AID1919014 (Molecular Pharmacology Branch, DTP, NCI, 2023)

Tested on: NCI-H1341 complex spheroids, percent test/control
Assay: Anticancer human tumor NCI-H1341 cell line growth inhibition [AhR];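 also: spheroids exposed to agents for seven days before readout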
Conditions: for IC50: curve of first compound; for viability, T/C: stronger effect = lower value; active = viability on the fitted dose curve at most 10% of control; inactive = the rest
From the text: Multicellular complex tumor spheroid response to aryl hydrocarbon receptor antagonists in combination with a variety of drugs and investigational agents in selected tumor cell lines
The current study was undertaken to assess response to aryl hydrocarbon receptor antagonists in combination with standard-of-care drugs and investigational agents in solid tumor complex spheroid models. Complex spheroids include a stromal component modeled by human endothelial cells (HUVEC) and fibroblasts modeled by human mesenchymal stem cells (MSCs). The concentration ranges selected for each drug and investigational agent were based upon clinically achievable concentrations if the clinical Cmax of the agent was known.
Compounds. The drugs and investigational agents: BAY 2416964 (NSC825713), GNF351 (NSC835774), CH-223191 (NSC835775), CPI-455 (NSC825282), aza-TdCyd (NSC777586), decitabine (NSC127716), belinostat (NSC758774), entinostat (NSC756642), pevonedistat (NSC761192), tazemetostat (NSC777109), talazoparib (NSC765396), olaparib (NSC753686), selinexor (NSC780203), nedisertib (M3814, NSC802822), bortezomib (NSC756655), venetoclax (NSC766270), doxorubicin (NSC123127), elimusertib (BAY189344, NSC800525), ceralasertib (AZD6738, NSC777638), TAK-243 (NSC785004), alisertib (NSC759677), etoposide (NSC141540), topotecan (NSC609699), eribulin (NSC707389), gemcitabine (NSC613327), carboplatin (NSC241240), cisplatin (NSC119875), and SN-38 (NSC673596) were obtained from the National Cancer Institute (NCI) Developmental Therapeutics Program Chemical Repository (32). The FDA-approved anticancer drug set is available from the Developmental Therapeutics Program at https://dtp.cancer.gov/organization/dscb/obtaining/available plates.htm. […] The stock solutions were prepared in dimethyl sulfoxide (DMSO, Sigma-Aldrich, St. Louis, MO, cat. D2650), except for the platinum compounds which were prepared in saline (Quality Biological, Gaithersburg, MD, cat. 114-055-101), at 800-fold the tested concentration and stored at -70 degrees C prior to their use. All drugs and investigational agents were tested over a range starting from a high concentration at or near the clinical Cmax and decreasing in half-log increments. If the clinical Cmax for an agent had not been determined, the highest concentration tested was 10 microM (Table 1).
Cell Culture. All cells were maintained in an incubator at 37 degrees C and 5% CO2 with 95% humidity. The PDC lines were cultured according to standard operating procedures established by the NCI PDMR (https://pdmr.cancer.gov). Briefly, all PDCs were thawed and cultured in Matrigel-coated flasks prepared with a working solution of 1X Ham's F-12 nutrient mix, without supplementation (Invitrogen, Waltham, MA, cat. 11765054), 100 U/mL penicillin-streptomycin (Invitrogen, cat. 15140122), and 2.5% Matrigel (Corning Inc., Corning, NY, cat. 354248) for the first three passages. All PDCs were cultured in complete DMEM/F-12 media containing advanced DMEM/F-12 (Invitrogen, cat. 12634028), 4.9% defined fetal bovine serum, heat inactivated (HyClone Laboratories Inc., Logan, UT, cat. SH30070.03HI), 389 ng/mL hydrocortisone (Sigma-Aldrich, cat. H4001), 9.7 ng/mL human EGF recombinant protein (Invitrogen, cat. PHG0313), 23.4 microg/mL adenine (Sigma-Aldrich, cat. A2786), 97.3 U/mL penicillin-streptomycin (Invitrogen, cat. 15140122), 1.9 mM L-glutamine (Invitrogen, cat. 25030081), and 9.7 microM Y-27632 dihydrochloride (Tocris Bioscience, Bristol, United Kingdom, cat. 1254). The PDCs were cultured in complete DMEM/F12 media without 10 microM Y-27632 dihydrochloride for at least two passages prior to the screen. The established cell lines NCI-H1341 and […] were cultured in DMEM/F-12, HEPES (Invitrogen, cat. 11330032), 5% defined fetal bovine serum (HyClone Laboratories Inc., cat. SH30070.03), ITS premix universal culture supplement [insulin (5 microg/mL), transferrin (5 microg/mL), and selenious acid (5 ng/mL)] […]

CC(C)CC(NC(=O)C(Cc1ccccc1)NC(=O)c1cnccn1)B(O)O (stereo not given) + CC(CO)NC(=O)c1cc(-c2ccc(Cl)cc2)nn(-c2cnn(C)c2)c1=O
3.55 nM: IC50 (second compound 3.16 µM)
4.61 nM: IC50 (second compound 0.1 µM)
4.3 nM: IC50 (second compound 0.316 µM)
3.81 nM: IC50 (second compound 10 µM)
inactive: viability, T/C (second compound 0.1 µM, first compound 0.000949 µM) 89.8% | viability, T/C (second compound 0.1 µM, first compound 0.003 µM) 79.2% | viability, T/C (second compound 0.316 µM, first compound 0.000949 µM) 88.1% | viability, T/C (second compound 0.316 µM, first compound 0.003 µM) 72.6% | viability, T/C (second compound 1 µM, first compound 0.000949 µM) 70.3% | viability, T/C (second compound 1 µM, first compound 0.003 µM) 75% | viability, T/C (second compound 3.16 µM, first compound 0.000949 µM) 86.3% | viability, T/C (second compound 3.16 µM, first compound 0.003 µM) 58.4% | viability, T/C (second compound 10 µM, first compound 0.000949 µM) 83.4% | viability, T/C (second compound 10 µM, first compound 0.003 µM) 62.9%
active: viability, T/C (second compound 0.1 µM, first compound 0.00949 µM) 0.86% | viability, T/C (second compound 0.1 µM, first compound 0.03 µM) 0.08% | viability, T/C (second compound 0.1 µM, first compound 0.0949 µM) 0.36% | viability, T/C (second compound 0.1 µM, first compound 0.3 µM) 0.13% | viability, T/C (second compound 0.316 µM, first compound 0.00949 µM) 0.3% | viability, T/C (second compound 0.316 µM, first compound 0.03 µM) 0.06% | viability, T/C (second compound 0.316 µM, first compound 0.0949 µM) 0.04% | viability, T/C (second compound 0.316 µM, first compound 0.3 µM) 0.68% | viability, T/C (second compound 1 µM, first compound 0.00949 µM) 0.31% | viability, T/C (second compound 1 µM, first compound 0.03 µM) 0.09% | viability, T/C (second compound 1 µM, first compound 0.0949 µM) 1.13% | viability, T/C (second compound 1 µM, first compound 0.3 µM) 0.28% | viability, T/C (second compound 3.16 µM, first compound 0.00949 µM) 0.91% | viability, T/C (second compound 3.16 µM, first compound 0.03 µM) 0.08% | viability, T/C (second compound 3.16 µM, first compound 0.0949 µM) 0.98% | viability, T/C (second compound 3.16 µM, first compound 0.3 µM) 0.6% | viability, T/C (second compound 10 µM, first compound 0.00949 µM) 1.02% | viability, T/C (second compound 10 µM, first compound 0.03 µM) 0.15% | viability, T/C (second compound 10 µM, first compound 0.0949 µM) 0.12% | viability, T/C (second compound 10 µM, first compound 0.3 µM) 0.45%
4.31 nM: IC50 (second compound 1 µM)
